From patent US7964556B1, “Antimicrobial peptides and use thereof” (Toagosei Co., Ltd, priority 2004, dated 2011)
Read-outs that look alike come from different tables or passages of the source. Where a SMILES comes first, the peptide text is derived from it.

Assays:
[1] = test system: Staphylococcus aureus; assay type: cell-based; settings: for antimicrobial activities against gram-positive bacteria (S. aureus), in words: summary of Table 2
Method: (§1) Regarding the antimicrobial peptide in samples 1 to 14 and the comparative sample 1, the antimicrobial activities (minimum inhibitory concentration: MIC) with respect to gram-negative bacteria (Escherichia coli) and gram-positive bacteria (Staphylococcus aureus) were determined, as described below, by a liquid medium dilution technique using a 96-well microplate. First, a drug (synthesized peptide) solution having a concentration of 40 times of the highest test concentration was prepared using sterile distilled water, and thereafter liquid-bouillon mediums (“NUTRIENT BROTH Dehydrated” manufactured by DIFCO) having peptide concentrations of 200, 100, 50, 25, 12.5, 6.25, 3.13, 1.56 and 0.78 μM were produced respectively. The produced liquid-bouillon mediums including the peptide of each concentration were then fed to the 96-well microplate at 100 μL a time.
(§2) At the same time, test bacteria cultured for 18 hours at 37° C. on an agar plate (“Muller Hinton Agar” manufactured by DIFCO) were gathered by scratching with a loop, and then suspended in a sterilized physiological saline. Bacterial suspension 5 μL prepared at an equivalent of 2×10^7 cells/mL was respectively inoculated (number of bacteria to be tested: approximately 1×10^6 cells/mL) onto the above-described liquid-bouillon mediums including the peptide of each concentration and fed to each well of the above-described microplate. After inoculation, the microplate was then incubated in an incubator at 37° C., and the presence of bacteria was evaluated based on the turbidity 24 hours later. The minimum drug concentration (peptide concentration), in which an increased in turbidity caused by bacteria was not detected at the time of measurement, was defined as MIC (minimum inhibitory concentration) (unit: μM) in the present embodiment.

[2] = test system: Escherichia coli; assay type: cell-based
Method: as §1, §2

[3] = liquid-bouillon medium (Nutrient Broth), 37° C., turbidity after 24 hours

Structure (SMILES) | Antimicrobial Activities (MIC) S. aureus ([1]; 24 h) | Antimicrobial Activities (MIC) E. coli ([2]; 24 h) | antimicrobial activities against gram-positive bacteria (S. aureus), in words [1] | Antimicrobial Activities (MIC) S. aureus [1, 3] | Antimicrobial Activities (MIC) E. coli [2, 3] | antimicrobial activities against E. coli, in words ([2]; summary of Table 2)
CC[C@H](C)[C@H](NC(=O)[C@H](CCC(N)=O)NC(=O)[C@@H](NC(=O)[C@@H](N)CCCCN)C(C)C)C(=O)N[C@H](C(=O)N[C@@H](CC(N)=O)C(=O)N[C@@H](CCCCN)C(=O)N[C@@H](CCCCN)C(N)=O)[C@@H](C)CC [Sample 2, KVQIINKK] (H-KVQIINKK-NH2; N-terminus assumed) | 200 µM | 200 µM | – | – | – | –
CC(C)C[C@H](NC(=O)[C@H](CCCNC(=N)N)NC(=O)[C@H](CCC(=O)O)NC(=O)[C@H](CC(C)C)NC(=O)[C@@H]1CCCN1C(=O)[C@@H]1CCCN1C(=O)[C@@H](N)CC(C)C)C(=O)N[C@H](C(=O)N[C@@H](CC(C)C)C(=O)N[C@@H](CC(=O)O)C(N)=O)[C@@H](C)O [Comparative Sample 1, LPPLERLTLD, reference compound] (H-LPPLERLTLD-NH2) | – | – | no antimicrobial activity | >200 µM | >200 µM | no antimicrobial activity
CC(C)[C@H](NC(=O)[C@H](C)NC(=O)[C@@H](NC(=O)[C@H](CCCCN)NC(=O)[C@@H](N)CCCCN)C(C)C)C(=O)N[C@H](C(=O)N[C@@H](CCCNC(=N)N)C(N)=O)C(C)C [Sample 1, KKVAVVR] (H-KKVAVVR-NH2) | 50 µM | 200 µM | – | – | – | –
CC[C@H](C)[C@H](NC(=O)[C@H](CCC(N)=O)NC(=O)[C@@H](NC(=O)[C@@H](N)CCCCN)C(C)C)C(=O)N[C@H](C(=O)N[C@@H](CC(N)=O)C(=O)N[C@@H](CCCCN)C(=O)N[C@@H](CCCCN)C(=O)N[C@@H](CC(C)C)C(=O)N[C@@H](CC(=O)O)C(=O)N[C@H](C(=O)N[C@@H](CO)C(=O)N[C@@H](CC(N)=O)C(=O)N[C@@H](CC(C)C)C(=O)N[C@@H](CCSC)C(=O)N[C@@H](Cc1c[nH]c2ccccc12)C(=O)N[C@@H](Cc1c[nH]c2ccccc12)C(=O)N[C@@H](CC(C)C)C(=O)N[C@@H](CC(C)C)C(N)=O)C(C)C)[C@@H](C)CC [Sample 11, KVQIINKKLDVSNLMWWLL] (H-KVQIINKKLDVSNLMWWLL-NH2) | 12.5 µM | 25 µM | particularly high antimicrobial activities | – | – | –
CC[C@H](C)[C@H](NC(=O)[C@H](CCC(N)=O)NC(=O)[C@@H](NC(=O)[C@@H](N)CCCCN)C(C)C)C(=O)N[C@H](C(=O)N[C@@H](CC(N)=O)C(=O)N[C@@H](CCCCN)C(=O)N[C@@H](CCCCN)C(=O)N[C@@H](CC(C)C)C(=O)N[C@@H](CCSC)C(=O)N[C@@H](Cc1c[nH]c2ccccc12)C(=O)N[C@@H](Cc1c[nH]c2ccccc12)C(=O)N[C@@H](CC(C)C)C(=O)N[C@@H](CC(C)C)C(N)=O)[C@@H](C)CC [Sample 12, KVQIINKKLMWWLL] (H-KVQIINKKLMWWLL-NH2) | 3.13 µM | 12.5 µM | particularly high antimicrobial activities | – | – | –
CC[C@H](C)[C@H](NC(=O)[C@H](CCC(N)=O)NC(=O)[C@@H](NC(=O)[C@H](CCCCN)NC(=O)[C@H](Cc1ccc(O)cc1)NC(=O)[C@@H](NC(=O)[C@@H](NC(=O)[C@H](CCC(N)=O)NC(=O)[C@@H](N)C(C)C)[C@@H](C)CC)C(C)C)C(C)C)C(=O)N[C@H](C(=O)N[C@@H](Cc1ccc(O)cc1)C(=O)N[C@@H](CCCCN)C(N)=O)C(C)C [Sample 14, VQIVYKVQIVYK] (H-VQIVYKVQIVYK-NH2) | 25 µM | 50 µM | particularly high antimicrobial activities | – | – | –
CC[C@H](C)[C@H](NC(=O)[C@H](CCC(N)=O)NC(=O)[C@@H](NC(=O)[C@H](CCCCN)NC(=O)[C@@H](NC(=O)[C@@H](NC(=O)[C@@H](NC(=O)[C@H](CCCNC(=N)N)NC(=O)[C@H](CCCCN)NC(=O)[C@H](CCCCN)NC(=O)[C@H](CCCNC(=N)N)NC(=O)[C@@H]1CCCN1C(=O)[C@@H]1CCCN1)[C@@H](C)O)C(C)C)C(C)C)C(C)C)C(=O)N[C@H](C(=O)N[C@@H](CC(N)=O)C(=O)N[C@@H](CCCCN)C(=O)N[C@@H](CCCCN)C(N)=O)[C@@H](C)CC [Sample 13, PPRKKRTVVKVQIINKK] (H-PPRKKRTVVKVQIINKK-NH2) | – | – | particularly high antimicrobial activities | 0.78 µM | 3.13 µM | –

Continued, in another order:

Antimicrobial Activities (MIC) S. aureus ([1]; 24 h) | Antimicrobial Activities (MIC) E. coli ([2]; 24 h) | Structure (SMILES) | antimicrobial activities against gram-positive bacteria (S. aureus), in words [1] | Antimicrobial Activities (MIC) S. aureus [1, 3] | Antimicrobial Activities (MIC) E. coli [2, 3] | antimicrobial activities against E. coli, in words ([2]; summary of Table 2)
12.5 µM | 100 µM | CC(C)[C@H](NC(=O)[C@H](C)NC(=O)[C@@H](NC(=O)[C@H](CCCCN)NC(=O)[C@H](CCCCN)NC(=O)[C@H](CCCNC(=N)N)NC(=O)[C@@H](NC(=O)[C@@H](NC(=O)[C@H](C)NC(=O)[C@@H](NC(=O)[C@H](CCCCN)NC(=O)[C@@H](N)CCCCN)C(C)C)C(C)C)C(C)C)C(C)C)C(=O)N[C@H](C(=O)N[C@@H](CCCNC(=N)N)C(N)=O)C(C)C [Sample 5, KKVAVVRKKVAVVR] (H-KKVAVVRKKVAVVR-NH2) | particularly high antimicrobial activities | – | – | –
3.13 µM | 6.25 µM | CC[C@H](C)[C@H](NC(=O)[C@H](CCC(N)=O)NC(=O)[C@@H](NC(=O)[C@H](CCCNC(=N)N)NC(=O)[C@H](CCC(N)=O)NC(=O)[C@H](CC(C)C)NC(=O)[C@H](CCCCN)NC(=O)[C@H](CCCNC(=N)N)NC(=O)[C@H](CCCCN)NC(=O)[C@@H](N)CC(C)C)C(C)C)C(=O)N[C@H](C(=O)N[C@@H](Cc1ccc(O)cc1)C(=O)N[C@@H](CCCCN)C(N)=O)C(C)C [Sample 3, LKRKLQRVQIVYK] (H-LKRKLQRVQIVYK-NH2) | particularly high antimicrobial activities | – | – | –
6.25 µM | 50 µM | CC(C)[C@H](NC(=O)[C@H](C)NC(=O)[C@@H](NC(=O)[C@H](CCCCN)NC(=O)[C@H](CCCCN)NC(=O)[C@@H](NC(=O)[C@H](CCCNC(=N)N)NC(=O)[C@@H](NC(=O)[C@@H](NC(=O)[C@H](C)NC(=O)[C@@H](NC(=O)[C@H](CCCCN)NC(=O)[C@@H](N)CCCCN)C(C)C)C(C)C)C(C)C)[C@@H](C)O)C(C)C)C(=O)N[C@H](C(=O)N[C@@H](CCCNC(=N)N)C(=O)N[C@H](C(N)=O)[C@@H](C)O)C(C)C [Sample 8, KKVAVVRTKKVAVVRT] (H-KKVAVVRTKKVAVVRT-NH2) | particularly high antimicrobial activities | – | – | –
1.56 µM | 6.25 µM | CC[C@H](C)[C@H](NC(=O)[C@H](CCC(N)=O)NC(=O)[C@@H](NC(=O)[C@H](CCCCN)NC(=O)[C@H](CCCCN)NC(=O)[C@H](CCCCN)NC(=O)[C@H](CC(N)=O)NC(=O)[C@@H](NC(=O)[C@@H](NC(=O)[C@H](CCC(N)=O)NC(=O)[C@@H](NC(=O)[C@@H](N)CCCCN)C(C)C)[C@@H](C)CC)[C@@H](C)CC)C(C)C)C(=O)N[C@H](C(=O)N[C@@H](CC(N)=O)C(=O)N[C@@H](CCCCN)C(=O)N[C@@H](CCCCN)C(N)=O)[C@@H](C)CC [Sample 6, KVQIINKKKVQIINKK] (H-KVQIINKKKVQIINKK-NH2) | particularly high antimicrobial activities | – | – | –
